Point of comparison: `CCOC(=O)C1=C(N)NC(C)=C(C(C)=O)C1c1cccc([N+](=O)[O-])c1` (stereo unspecified), melting point 217 °C. Against it:
- COc1ccc(NC(NC(c2ccc(CC(C)(C)C)s2)C2CCCCC2)=C2C(=O)OC(C)(C)OC2=O)c(OC)c1 (stereo unspecified) — lower, 143 to 145 °C
- CCc1coc(=O)n1C(=O)c1ccccc1Cl — lower, 110 to 112 °C
- CC(=O)CC(=O)Nc1nnc(C(C)(C)C)s1 — lower, 166 to 168 °C
- Cn1c(C(F)(F)F)cc(=O)n(-c2cc(OCCOC=C(Cl)Cl)c(Cl)cc2F)c1=O — lower, 97 to 99 °C
- COC1CC2(C)C(CCC3C4CCC(C(C)=O)C4(C)CC(=O)C32)CC1O (stereo unspecified) — lower, 163 to 164 °C
- Cc1oc(-c2cccc(-c3ccc(C(=O)O)cc3)c2)nc1CCOc1cccc(OC(C)(C)C(=O)O)c1 — lower, 184 °C
- CCCCn1cc(C(=O)C(=O)O)c2cc(-c3ccc(C(F)(F)F)cc3)ccc21 — lower, 149 °C
- COc1ccc(S(=O)(=O)c2ccccc2C(C)C)cc1 — lower, 100 °C
- O=C1c2cc(C(F)(F)F)c(C(F)(F)F)cc2C(=O)c2cc3ccccc3cc21 — higher, > 280 °C
- O=C1CCC(N2Cc3c(OCc4ccc(CN5CCOCC5)cc4)cccc3C2=O)C(=O)N1 (stereo unspecified) — lower, 206 to 208 °C
- CC(NC(=O)C(C)(Cc1ccccc1)NC(=O)OC(c1ccc(F)cc1)C(C)C)c1ccccc1 (stereo unspecified) — lower, 154 °C
- O=C1N(Cc2cn(C(c3ccccc3)(c3ccccc3)c3ccccc3)cn2)CCN1c1cccc(Cl)c1 — lower, 162 to 166 °C
- OCCCNc1nc(-c2ccc(Cl)c(Cl)c2)nc2ccccc12 — lower, 164 to 166 °C
- CC(=O)Nc1nc(OCC(C)C)c2nc(Cl)ccc2n1 — lower, 168 °C
- Cc1c(CO)ncnc1N1CCCCC1 — lower, 79 to 81 °C
- Clc1cccc(N2CCN(CCCc3nnn[nH]3)CC2)c1 — lower, 162 to 164 °C
- COc1cccc(COc2ncc(F)c(NN)n2)c1 — lower, 103 to 106 °C
- CN1CCN(c2ccccc2C=C2CCN(c3ccccc3)C2=O)CC1 — lower, 104 to 106 °C
- O=C(O)c1ccc(C(=O)Nc2cccc([N+](=O)[O-])c2)cc1 — higher, 319 °C
- Cc1ccc([N+](=O)[O-])c2c1CCN2 — lower, 125 to 127 °C
- O=C(O)c1ccc(-c2cnc3c(c2)N(Cc2ccccc2OC(F)(F)F)CCN3)cc1 — higher, 250 °C
- O=c1[nH]c2ccccc2nc1-c1cc(O)c(O)c([N+](=O)[O-])c1 — higher, > 300 °C
- Cc1ccccc1NS(=O)(=O)c1ccc(NC2=C(Cl)C(=O)c3ccccc3C2=O)cc1 — higher, 265 to 266 °C
- O=c1ccn2c(n1)COc1ccc(Cl)cc1-2 — higher, 222 to 224 °C
- CCCc1c(OCC(O)COc2ccc3c(=O)cc(CCC(=O)OCC)oc3c2CCC)ccc(C(C)=O)c1O (stereo unspecified) — lower, 137 to 138 °C
- COc1ccc(N2C(=O)[C@H](O)[C@H]2c2ccco2)cc1 — lower, 149 to 152 °C
- CCOC(=O)c1cn(C23CC(C2)C3)c2cc(Cl)c(F)cc2c1=O — higher, 223 to 225 °C
- COC(=O)C(Cc1c[nH]c2ccccc12)NC1CCC(c2ccccc2)(N(C)C)CC1 (stereo unspecified) — lower, 60 to 65 °C
- O=c1[nH]c2ccccc2c(=O)n1Cc1ccc(Cl)c(Cl)c1 — higher, 274 to 275 °C
- COC1=C(OC)C(=O)OC1=O — lower, 41 to 43 °C
- COC(=O)c1ccc2c(c1)C(SCCCl)c1ccccc1CO2 (stereo unspecified) — lower, 100 to 102 °C
- CCCc1c(OCCCOc2ccc3c(c2CCC)OC(C(C)=O)(C(=O)OC)CC3)ccc(C(C)=O)c1O (stereo unspecified) — lower, 58 to 59 °C
- Nc1cccc(CCN2CCN(c3nsc4ccccc34)CC2)c1 — lower, 108 °C
- Cc1oc(-c2ccccc2)nc1COc1nn(Cc2ccc(Oc3ccccc3)cc2)cc1CCC(=O)O — lower, 120 to 121 °C
- CCCc1nn(C)c2c(=O)n(CCOc3ccc(NC(C)C(=O)OCC)cc3)c(CC)nc12 (stereo unspecified) — lower, 100 to 104 °C
- CCOC(=O)C(=O)Nc1cc(C)nc(N2CCc3ccccc3C2)c1 — lower, 128 to 129 °C
- O=C(N[C@H](Cc1cccc(OC(F)(F)C(F)F)c1)[C@@H](O)c1csc(-c2ccccc2)n1)c1cccc2c1C=CCCC2 (racemic) — lower, 137 to 138 °C
- CCOC(=O)CC(NC(=O)C=CS(=O)c1ccccc1)C(=O)OCC (stereo unspecified) — lower, 121 to 123 °C
- Cc1csc(C)c1N(Cn1cccn1)C(=O)CCl — lower, 88 to 89 °C
- CCOc1cc2cc3c(Nc4cc(OC)c(Cl)cc4C)c(C#N)cnc3cc2cc1OCCCl — lower, 129 to 130 °C
- CCCCN(CCCC)c1nc(-c2ccc(C(C)(C)C)cc2)cs1 — lower, 48.5 to 49.5 °C
- O=C1NCCCCC1c1cccc(O)c1 (stereo unspecified) — lower, 175 to 178 °C
- CCCCCNC(=O)[C@H](Cc1ccc(OCC(=O)O)c(-c2nn[nH]n2)c1)NC(=O)[C@H](Cc1ccccc1)NC(=O)OC(C)(C)C — lower, 121 to 123 °C
- COc1ccc2ncc([N+](=O)[O-])c(O)c2c1 — higher, 278 to 281 °C
- N#Cc1ccc(CC[C@H]2CC[C@H](CO)CC2)cc1 — lower, 119 to 121 °C
- Cc1cn(C(C)(C(=O)N(C)C)c2ccccc2)nc1-c1ccccc1 (stereo unspecified) — lower, 107 to 109 °C
- Cc1cc(OCCCCl)c(C)c(C)c1OCCCCl — lower, 143 °C
- CS(=O)(=O)c1ccc(-c2cc(C(=O)CCCO)nn2-c2ccc(Br)cc2)cc1 — lower, 136 to 137 °C
- CN(C)c1ccc(C2(c3ccc(N(C)C)cc3)Oc3ccccc3-c3[nH]c4ccccc4c32)cc1 — lower, 145 °C
- N#CCCC(=O)c1ccccc1 — lower, 69 °C
- O=C1C(=O)c2ccc(Cl)cc2C2=C1SCC1(CCNCC1)O2 — higher, > 300 °C
- O=C(c1cc(Cl)cc(Cl)c1)N1CCN(Cc2ccccc2)C[C@H]1Cc1c[nH]c2ccccc12 — lower, 93 to 98 °C
- O=C(Nc1cccc2c1C(=O)c1c-2n[nH]c1-c1ccc(C(=O)NC2CCNCC2)s1)NN1CCOCC1 — higher, 224 to 226 °C
- CCCCN1C(C)=C(C(=O)OCC)C(c2cc([N+](=O)[O-])ccc2OCC(=O)OCC)C(C(=O)OCC)=C1C — lower, 88 to 90 °C
- Cc1ccc(CN2CCC(c3cc(-c4ccc(Cl)cc4)[nH]n3)CC2)cc1 — lower, 181 to 183 °C
- CCCC(=O)Nc1cccc(C(c2c(O)c3c(oc2=O)CCCCCC3)C2CC2)c1 (stereo unspecified) — higher, 222 to 224 °C
- Cc1cc(-c2nnc3c4ccccc4c(OCc4ccn(C)n4)nn23)no1 — higher, 243 to 244 °C
- CCOc1ccc2[nH]c(=O)n(-c3ccccc3Cl)c2c1 — lower, 97 °C
- O=C(Nc1ccc2nc(CN3CCCC3)ccc2c1)c1ccc(-c2ccc(Cl)cc2)cc1 — lower, 200 to 202 °C
- CC(=O)SCc1ccc([N+](=O)[O-])cc1[N+](=O)[O-] — lower, 78 to 79 °C
- CC(C)(C)Oc1ccc(C(N)=O)cc1 — lower, 135 to 136 °C
- COc1cc2ncnc(N3CCc4ccccc43)c2cc1OC — lower, 162 to 163 °C
- COc1ccc2c(c1)C(=NOCCN1CCCC1)c1c-2cnc2ccccc12 — lower, 85 to 86 °C
- COc1c(C)cc(-c2c3ccccc3c(C)c3sc4ccccc4c23)cc1C — lower, 154 to 156 °C
- C#CCN(Cc1cc2c(=O)[nH]c(C)nc2cc1Br)c1ccc(C(=O)NC(CO)c2cccc([N+](=O)[O-])c2)cc1 (stereo unspecified) — higher, 221 to 232 °C
- CCNC(=O)N1CCc2ccc(S(=O)(=O)NC(=O)NC3CCCCC3)cc2CC1 — lower, 158 to 160 °C
- COC(=O)COc1ccc(Cn2c(-c3ccc(OC4CCCC4)cc3)c(C)c3cc(OCc4ccccc4)ccc32)cc1 — lower, 96 to 98 °C
- O=Cc1cc(F)c(O)c(F)c1O — lower, 141 to 143 °C
- O=c1[nH]c2cc(Cl)ccc2c(O)c1-c1ccc(Br)cc1 — higher, > 350 °C
- CCOC(=O)c1cn(CCOC(C)=O)c2c(F)c(F)c(F)c(C)c2c1=O — lower, 192 to 193 °C
- COC(=O)CC(=O)Nc1cccc(COc2ccc(C(C)=O)c(OC)c2)c1 — lower, 93.5 to 96.5 °C
- O=C(O)c1cc(OCCCCCCc2cccc(O)c2O)ccc1O — lower, 159 to 161 °C
- CC(C)c1cc(C(=O)CNc2ccc(C(=O)O)cc2)oc1C(C)C — lower, 184 to 186 °C
- CCCCn1ncc(/C=C(\Cc2cc3c(cc2OC)CCO3)C(=O)O)c1-c1ccc(Cl)cc1OCc1c(Cl)cccc1C(=O)O — lower, 114 to 116 °C
- CN(CC(O)c1ccc(Cl)c(Cl)c1)C(=O)OC(C)(C)C (stereo unspecified) — lower, 88 °C
- Cn1c(=O)c2c(-c3ccccc3)n(-c3ccccc3N)cc2n(C)c1=O — higher, > 300 °C
- COc1nc2cc(Cl)c(Cl)c(N(CC(=O)O)S(C)(=O)=O)c2nc1OC — lower, 203 to 206 °C
- Cc1cc(-c2ccccc2)nc2c1ccn2-c1ccc(C(C)C)cc1Br — lower, 95.8 °C
- O=[N+]([O-])c1oc2ccc(-c3nnn[nH]3)cc2c1-c1ccccc1 — not separable, 215 to 217 °C
- COc1cc(OC)c2c(=O)c3oc4cc(OC)ccc4c3oc2c1 — higher, 272 to 274 °C
- CCCCCCCCCCCCCCCc1ccc(C=O)c(O)c1 — lower, 50 to 54 °C
- O=[N+]([O-])c1ccc2c(c1)OC(COc1nccnc1N1CCNCC1)CO2 (stereo unspecified) — lower, 133 to 135 °C
- COc1ccc(C2C(Oc3ccccc3)C(=O)N2c2ccc(C(=O)O)cc2)cc1 (stereo unspecified) — higher, 268 °C
- CNC(=O)c1ccccc1Nc1nc(Nc2cc3c(cc2OC)CC(=O)N(CCCN2CCOCC2)CC3)ncc1Cl — lower, 92 to 100 °C
- COC(=O)C1Cc2c([nH]c3ccccc23)C(c2cc3ccccc3o2)N1 (stereo unspecified) — lower, 195 to 198 °C
- CN(C)c1ccc2sc(S(N)(=O)=O)cc2c1 — lower, 197 to 199 °C
- COc1ccc(O)c(C2Sc3ccccc3N(C)C2=O)c1 (single isomer, unassigned; (-)) — lower, 160 to 162 °C
- O=C(c1ccncc1)c1cccc(NC(=O)c2ccn3c2CSC3c2cccnc2)c1 (stereo unspecified) — lower, 186 °C
- COc1ccc(C2=CC(C3CCN(c4ncnc5c4cnn5C)CC3)C(=O)C3CC=CCC23)cc1OC (stereo unspecified) — lower, 193 to 194 °C
- CN(C)C=Cc1ccncc1C#N — lower, 80 to 83 °C
- CC(C)(C)c1cc(N2C=NC(NC(=N)N)S2)cc(C(C)(C)C)c1O (stereo unspecified) — higher, 276 °C
- Cn1c(=O)cc(-c2cccc(Cl)c2)c2cc(C(O)(c3ccc(Cl)cc3)c3cnccc3Cl)ccc21 (stereo unspecified) — lower, 178 °C
- CCCC1=NN(c2cccc(S(=O)(=O)O)c2)C(=O)C1=CNc1ccccc1CC — higher, 259 °C
- Nc1ccc(Cl)cc1C(=O)C(F)(F)Cl — lower, 55 to 56 °C
- COc1c2c(c(OC)c(OC)c1OC)CCC(=O)CC2 — lower, 77 to 78 °C

From a melting point compilation (Tetko et al.; mined from patent text by program, amines drawn as free bases though some values may be those of a salt)
